# Legend:
# E. coli (ATCC 10798) [1] = assay: Sensitization to erythromycin (concentration lowering the MIC of erythromycin), E. coli (ATCC 10798); assay type: cell-based, Escherichia coli; conditions: for MIC: concentration required to lower the MIC of erythromycin from 70 μg/mL to 1 μg/mL / MBC (with erythromycin): Table 2, E. coli (ATCC 10798); for MBC (with erythromycin): erythromycin sensitization; for (a) Concentration required to lower the MIC of erythromycin from 70 to 1 μg/mL / (b) MBC with 1 μg/mL erythromycin / FIC values with erythromycin: Table 9, Escherichia coli (ATCC 10798)
# E. coli (ATCC 10798) [2] = assay: Sensitization to novobiocin (concentration lowering the MIC of novobiocin), E. coli (ATCC 10798); assay type: cell-based, Escherichia coli; conditions: for MIC: concentration required to lower the MIC of novobiocin from >500 μg/mL to 1 μg/mL / MBC (with novobiocin): Table 3, E. coli (ATCC 10798); for MBC (with novobiocin): novobiocin sensitization; for (d) Concentration required to lower the MIC of novobiocin from >500 to 1 μg/mL / FIC values with novobiocin: Table 9, Escherichia coli (ATCC 10798)
# [3] = tested on: Pseudomonas aeruginosa (ATCC 27853); assay: MIC and MBC measurement with Pseudomonas aeruginosa (ATCC 27853); assay type: cell-based
# Summary of the method: (§1)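 Strains kept on Mueller-Hinton agar (Candida on Sabouraud dextrose agar); suspension mixed 1:1 with TSB containing serial compound concentrations; 37° C., 24 h, no shaking; turbidity A760; clear tubes plated on TSA, colonies counted, CFU/mL vs inoculum.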
# [4] = tested on: Pseudomonas aeruginosa (ATCC 27853); assay: Sensitization to novobiocin, Pseudomonas aeruginosa (ATCC 27853); assay type: cell-based; conditions: for MIC: concentration required to lower the MIC of novobiocin from >500 μg/mL to 1 μg/mL: Table 8, P. aureginosa (ATCC 27853); for FIC / concentration required to inhibit bacterial growth with antibiotic: Table 12, Pseudomonas aeruginosa ATCC 27853; for FIC: novobiocin (by order); for concentration required to inhibit bacterial growth with antibiotic: novobiocin (by order) at 0.5, 1.0 or 3.0 μg/mL
# Summary of the method: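 Tube checkerboard in TSB: cholic acid derivatives added, then erythromycin or novobiocin 15 min later, antibiotics at 0.5, 1.0 or 3.0 μg/mL; stationary 37 °C, 24 h. Turbidity read at 760 nm; clear samples subcultured on TSA for CFU counts versus inoculum; FIC derived for synergy.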
# [5] = tested on: Salmonella typhimurium ATCC 14028; assay: MIC and MBC measurement with Salmonella typhimurium ATCC 14028; assay type: cell-based; conditions: Table 10
# Summary of the method: as §1
# [6] = tested on: Enterococcus faecalis ATCC 29212; assay: MIC and MBC measurement with Enterococcus faecalis ATCC 29212; assay type: cell-based; conditions: Table 10
# Description: (§2) General: Microorganisms. Reference strains were purchased from the American Type Culture Collection (Rockville, Md.) or Bactrol disks from Difeo Laboratories (Detroit, Mich.). The following specific ATCC strains were used: 10798 Escherichia coli, 25922 Escherichia coli, 13883 Klebsiella pneumoniae, 27853 Pseudomonas aeruginosa, 14028 Salmonella typhimurium, 29212 Enterococcus faecalis, 25923 Staphylococcus aureus, 19615 Streptococcus pyogenes, and 90028 Candida albicans. Bacterial strains were maintained on Mueller-Hinton agar plates, and Candida albicans was maintained on Sabouraud Dextrose agar plates.
# (§3) Tryptic soy broth (TSB) was made by dissolving 27.5 grams of tryptic soy broth without dextrose (DIFCO Laboratories) in 1 liter of deionized water and sterilizing at 121° C. for 15 minutes. Solid agar (TSA) plates were made by dissolving 6.4 grams of tryptic soy broth and 12 grams of agar (purified grade, Fischer Scientific) in 800 mL of deionized water and sterilizing at 121° C. for 20 minutes. Aliquots (20 mL) of the homogeneous solution were then poured in sterile plastic petri dishes (100×15 mm, Fisher Scientific). Solutions of compounds were made by dissolving the HCl salt of the respective compound into an appropriate amount of deionized and sterilized water followed by microfiltration.
# (§4) Aliquots of 1 mL of the suspension were added to test tubes containing 1 mL TSB and incrementally varied concentrations of cholic acid derivatives and/or erythromycin or novobiocin. In the sensitization experiments, erythromycin or novobiocin were added 15 minutes later than the cholic acid derivatives. The samples were subjected to stationary incubation at 37° C. for 24 hours. Sample turbidity was determined by measuring absorption at 760 nm (HP 8453 UV-Visible Chemstation, Hewlett Packard). Additionally, an alliquot from each of the samples showing no measurable turbidity was subcultured on TSA plates (alliquots were diluted to provide fewer than 300 CFU). Colonies that grew on the subculture after overnight incubation were counted and the number of CFU/mL in the samples were calculated. The calculated values were compared to the number of CFU/mL in the original inoculum.
# [7] = tested on: Staphylococcus aureus ATCC 25923; assay: MIC and MBC measurement with Staphylococcus aureus ATCC 25923; assay type: cell-based; conditions: Table 10; Staphylococcus aureus ATCC 25923
# Summary of the method: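 Bacteria incubated statically 24 h at 37 °C in TSB with graded compound concentrations (erythromycin or novobiocin added 15 min later in sensitization runs). MIC from turbidity at 760 nm; MBC by subculturing clear samples on TSA and comparing CFU/mL to inoculum.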
# [8] = tested on: Candida albicans ATCC 90028; assay: MIC and MBC measurement with Candida albicans ATCC 90028; assay type: cell-based; conditions: Table 10
# Description: as §2, §3, §4
# [9] = tested on: Salmonella typhimurium ATCC 14028; assay: Growth inhibition and FIC with novobiocin, Salmonella typhimurium ATCC 14028; assay type: cell-based; conditions: for FIC: Table 12, novobiocin (by order); for concentration required to inhibit bacterial growth with antibiotic: Table 12, novobiocin (by order) at 0.5, 1.0 or 3.0 μg/mL
# Method: (§5) Alternatively, “fractional inhibitory concentration (FIC)” is also useful for determination of synergy between the compounds of the invention, or the compounds in combination with known antibiotics. FICs can be performed by checkerboard titrations of compounds in one dimension of a microtiter plate, and of antibiotics in the other dimension, for example. The FIC is calculated by looking at the impact of one antibiotic on the MIC of the other and vice versa. […] Preferably, an FIC of less than 0.5 is obtained for synergism. As used herein, FIC can be determined as follows:
# as §4
# (§6) To measure permeabilization, the FIC values for compounds 1, 2, 5, 106, 10, 112, 133, and 134 with erythromycin, novobiocin, and rifampicin were determined. Concentrations of 0.5, 1.0 or 3.0 μg/mL of these antibiotics were used, and the concentrations of the cholic acid derivatives required to inhibit bacterial growth of Gram-negative strains were determined.
# [10] = tested on: Escherichia coli ATCC 25922; assay: Growth inhibition and FIC with rifampicin, Escherichia coli ATCC 25922; assay type: cell-based; conditions: for FIC: Table 13, rifampicin (by order); for concentration required to inhibit bacterial growth with antibiotic: Table 13, rifampicin (by order) at 0.5, 1.0 or 3.0 μg/mL
# Method: as §5, §4, §6
# [11] = tested on: Klebsiella pneumonia ATCC 13883; assay: Growth inhibition and FIC with rifampicin, Klebsiella pneumoniae ATCC 13883; assay type: cell-based; conditions: for FIC: Table 13, rifampicin (by order); for concentration required to inhibit bacterial growth with antibiotic: Table 13, rifampicin (by order) at 0.5, 1.0 or 3.0 μg/mL
# Method: as §5, §4, §6
# [12] = tested on: Salmonella typhimurium ATCC 14028; assay: Growth inhibition and FIC with rifampicin, Salmonella typhimurium ATCC 14028; assay type: cell-based; conditions: Table 13, Salmonella typhimurium ATCC 14028^b; for FIC: rifampicin (by order); for concentration required to inhibit bacterial growth with antibiotic: rifampicin (by order) at 0.5, 1.0 or 3.0 μg/mL
# Method: as §5, §4, §6
# [13] = Table 6, P. aureginosa (ATCC 27853)
# [14] = Table 10, Pseudomonas aeruginosa ATCC 27853
Compound,"MBC [3, 14] [µg/mL]","MIC [3, 14] [µg/mL]",FIC [4],concentration required to inhibit bacterial growth with antibiotic [4] [µg/mL],MBC [5] [µg/mL],MIC [5] [µg/mL],MBC [6] [µg/mL],MIC [6] [µg/mL],MBC [7] [µg/mL],MIC [7] [µg/mL],MBC [8] [µg/mL],MIC [8] [µg/mL],FIC [9],concentration required to inhibit bacterial growth with antibiotic [9] [µg/mL],FIC [10],concentration required to inhibit bacterial growth with antibiotic [10] [µg/mL],FIC [11],concentration required to inhibit bacterial growth with antibiotic [11] [µg/mL],FIC [12],concentration required to inhibit bacterial growth with antibiotic [12] [µg/mL],other results
C[C@H](CCCN(C)Cc1ccccc1)[C@H]1CC[C@H]2[C@@H]3[C@H](OCCN)C[C@@H]4C[C@H](OCCN)CC[C@]4(C)[C@H]3C[C@H](OCCN)[C@]12C [Compound 1],38,26,0.16,3.9,>25,21,50,4.9,5.7,3.1,>50,49,0.22,4.4,0.099,0.74,0.043,0.40,0.089,0.84,"MIC: concentration required to lower the MIC of erythromycin from 70 μg/mL to 1 μg/mL (E. coli (ATCC 10798) [1]): 2 µg/mL; MBC (with erythromycin) (E. coli (ATCC 10798) [1]): 20 µg/mL; MIC: concentration required to lower the MIC of novobiocin from >500 μg/mL to 1 μg/mL (E. coli (ATCC 10798) [2]): 20 µg/mL; MBC (with novobiocin) (E. coli (ATCC 10798) [2]): 34 µg/mL; MBC [3, 13]: >50 µg/mL; MIC [3, 13]: 15 µg/mL; MIC: concentration required to lower the MIC of novobiocin from >500 μg/mL to 1 μg/mL [4]: 6 µg/mL"
C[C@H](CCCN(C)Cc1ccccc1)[C@H]1CC[C@H]2[C@@H]3[C@H](OCCCN)C[C@@H]4C[C@H](OCCCN)CC[C@]4(C)[C@H]3C[C@H](OCCCN)[C@]12C [Compound 2],>17,11,0.27,2.9,16,13,19,3.4,4.7,1.0,42,30,0.36,4.5,0.22,0.80,0.035,0.12,0.079,0.39,"MIC: concentration required to lower the MIC of erythromycin from 70 μg/mL to 1 μg/mL (E. coli (ATCC 10798) [1]): 1 µg/mL; MBC (with erythromycin) (E. coli (ATCC 10798) [1]): 10 µg/mL; MIC: concentration required to lower the MIC of novobiocin from >500 μg/mL to 1 μg/mL (E. coli (ATCC 10798) [2]): 7 µg/mL; MBC (with novobiocin) (E. coli (ATCC 10798) [2]): 16 µg/mL; MBC [3, 13]: 40 µg/mL; MIC [3, 13]: 9 µg/mL; MIC: concentration required to lower the MIC of novobiocin from >500 μg/mL to 1 μg/mL [4]: 4 µg/mL"
C[C@]12CC[C@@H](OCCCN)C[C@H]1C[C@@H](OCCCN)[C@@H]1[C@@H]2C[C@H](OCCCN)[C@]2(C)[C@@H](O)CC[C@@H]12 [Compound 106],97,85,0.36,30,>100,>100,>100,12,54,8.6,92,75,0.094,8.4,0.12,4.2,0.044,1.8,0.064,1.4,(a) Concentration required to lower the MIC of erythromycin from 70 to 1 μg/mL (E. coli (ATCC 10798) [1]): 30 µg/mL; (b) MBC with 1 μg/mL erythromycin (E. coli (ATCC 10798) [1]): 160 µg/mL; FIC values with erythromycin (E. coli (ATCC 10798) [1]): 0.23; (d) Concentration required to lower the MIC of novobiocin from >500 to 1 μg/mL (E. coli (ATCC 10798) [2]): 50 µg/mL; FIC values with novobiocin (E. coli (ATCC 10798) [2]): 0.36
CCCOCCC[C@@H](C)[C@H]1CC[C@H]2[C@@H]3[C@H](OCCCN)C[C@@H]4C[C@H](OCCCN)CC[C@]4(C)[C@H]3C[C@H](OCCCN)[C@]12C [Compound 112],6.4,4.6,0.17,0.72,90,86,4.7,3.1,4.2,0.55,45,41,0.015,0.39,0.19,0.81,0.031,0.11,0.051,0.10,(a) Concentration required to lower the MIC of erythromycin from 70 to 1 μg/mL (E. coli (ATCC 10798) [1]): 0.4 µg/mL; (b) MBC with 1 μg/mL erythromycin (E. coli (ATCC 10798) [1]): 4.0 µg/mL; FIC values with erythromycin (E. coli (ATCC 10798) [1]): 0.048; (d) Concentration required to lower the MIC of novobiocin from >500 to 1 μg/mL (E. coli (ATCC 10798) [2]): 0.8 µg/mL; FIC values with novobiocin (E. coli (ATCC 10798) [2]): 0.085

# — patent publication US7598234B2, “Steroid derived antibiotics” (Brigham Young University, priority 1998, dated 2009)
